Experimental data: PMC11455950, “Effects of SZV-2649, a new multiple ion channel inhibitor mexiletine analogue” (Scientific Reports, 2024)

Assays:
[1] = molecular target: T1, GIRK1 (Kir3.1/3.4) potassium channel (Homo sapiens, UniProt P48544+P48549); assay: Automated planar patch-clamp, GIRK current in HEK cells; type: cell-based; settings: HEK cells (abstract)
T1 construct: host or cells: HEK293
T1 sequence (P48549 1-501): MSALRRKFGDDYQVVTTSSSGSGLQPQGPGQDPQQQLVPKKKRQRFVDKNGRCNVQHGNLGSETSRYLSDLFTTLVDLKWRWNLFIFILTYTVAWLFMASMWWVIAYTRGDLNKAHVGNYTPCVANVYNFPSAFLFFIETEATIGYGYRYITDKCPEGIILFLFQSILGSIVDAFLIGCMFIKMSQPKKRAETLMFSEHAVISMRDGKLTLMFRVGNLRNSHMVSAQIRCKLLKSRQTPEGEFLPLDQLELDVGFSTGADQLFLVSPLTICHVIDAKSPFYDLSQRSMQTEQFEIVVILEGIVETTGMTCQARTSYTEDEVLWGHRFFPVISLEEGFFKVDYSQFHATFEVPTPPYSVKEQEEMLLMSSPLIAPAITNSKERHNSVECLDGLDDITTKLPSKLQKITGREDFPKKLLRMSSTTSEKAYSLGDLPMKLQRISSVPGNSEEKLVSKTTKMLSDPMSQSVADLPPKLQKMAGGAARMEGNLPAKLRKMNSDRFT
T1 sequence (P48544 1-419): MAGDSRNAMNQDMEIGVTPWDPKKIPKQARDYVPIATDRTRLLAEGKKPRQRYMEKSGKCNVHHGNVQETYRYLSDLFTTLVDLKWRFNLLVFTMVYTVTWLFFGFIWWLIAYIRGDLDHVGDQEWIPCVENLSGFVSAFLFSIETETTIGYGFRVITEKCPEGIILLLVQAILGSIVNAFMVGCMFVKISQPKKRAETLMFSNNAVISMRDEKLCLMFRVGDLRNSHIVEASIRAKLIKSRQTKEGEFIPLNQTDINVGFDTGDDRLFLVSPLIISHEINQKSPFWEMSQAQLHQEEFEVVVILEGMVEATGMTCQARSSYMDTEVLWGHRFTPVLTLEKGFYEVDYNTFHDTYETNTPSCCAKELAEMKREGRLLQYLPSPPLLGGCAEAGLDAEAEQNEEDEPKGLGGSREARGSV
From the text: Inhibition of the hERG channel, the pore forming α-subunit of the native IKr cardiac potassium channel, is expected to prolong repolarization both in the atria and in the ventricles. The GIRK channel is the pore forming α-subunit of the acetylcholine-activated potassium channel and plays an important role in atrial electrophysiology. Its inhibition can be expected to decrease the acetylcholine-activated potassium current (IKACh), a current that plays an important role in the pathogenesis of AF. Therefore, the effects of SZV-2649 on the hERG and GIRK ion channels were studied by the planar patch-clamp technique in mammalian HEK cell lines stably expressing these channels.
The currents conducted by the hERG and GIRK channels were measured by using planar patch-clamp technology[,[47],[68] in the whole-cell configuration with a four-channel medium-throughput fully automated patch-clamp platform (Patchliner Quattro, Nanion Technologies GmbH, Munich, Germany) with integrated temperature control. […]
For GIRK current measurements (see Fig. 2.), the internal solution was (in mM): K-gluconate 40, NaCl 20, KF 60, EGTA 20 and HEPES 10 (pH 7.2, KOH) supplemented with 0.9 mM GTP before experiments to induce channel activation. […] The invard currents were calculated from the − 140 mV segment. […]

conscious dogs = assay: Basic ECG parameters in conscious dogs; type: in vivo, dog
Method: The effects of SZV-2649 on the basic ECG parameters in conscious dogs were investigated. […] Beagle dogs of either sex weighing 12–14 kg were used for the experiments. ECG measurements were taken in conscious animals using the standard I-III leads. QTc was calculated using the Van de Water’s formula[61]. SZV-2649 (10 mg/kg) was applied by i.v. or oral administration.

[2] = tested on: dog right ventricular muscle preparations; assay: Conventional microelectrode action potential recording, dog ventricular muscle; settings: 10 µM
[3] = intravenous 10 mg/kg, 30 min after administration, n = 6
[4] = per os 10 mg/kg, 1 h after administration, n = 7

SMILES: CC(N)COc1c(I)cc(C#N)cc1I.Cl (stereo not shown) [SZV-2649, 4-(2-aminopropoxy)-3,5-diiodobenzonitrile hydrochloride]
- IC50 [1]: 529 nM
- PQ (conscious dogs; [3]): 150.6 ± 15.8 ms
- QRS (conscious dogs; [3]): 52.2 ± 3.2 ms
- QT (conscious dogs; [3]): 234.5 ± 5.6 ms
- RR (conscious dogs; [3]): 756.1 ± 29.4 ms
- QTC (conscious dogs; intravenous 10 mg/kg, 30 min after administration, n = 6, Van de Water's formula): 255.7 ± 6.3 ms
- PQ (conscious dogs; [4]): 119.8 ± 7.5 ms
- QRS (conscious dogs; [4]): 47.9 ± 2.4 ms
- QT (conscious dogs; [4]): 215.0 ± 7.5 ms
- RR (conscious dogs; [4]): 596.2 ± 44.0 ms
- QTC (conscious dogs; per os 10 mg/kg, 1 h after administration, n = 7, Van de Water's formula): 250.1 ± 7.0 ms
- Onset kinetics of Vmax block ([2]; after 1 min rest, stimulation cycle length 400 ms): 3.1
- Effect on Vmax as a function of stimulation cycle length ([2]; dog ventricular muscle, steady-state stimulation): decreased Vmax at cycle lengths shorter than 2000 ms
